The source of these data is ChEMBL document CHEMBL1149658, “Pyridinylimidazole inhibitors of Tie2 kinase” (Bioorg Med Chem Lett, 2007).

The target in one experiment is Angiopoietin-1 receptor (Homo sapiens, UniProt Q02763). The experiment is described as follows: Inhibition of Tie2 kinase by autophosphorylation assay. It counts as functional.
A short description of experiment [1]: Inhibition of P38 kinase. Also on record: species or system Homo sapiens.
Experiment [2] relates to Mus musculus. The experiment is described as follows: Reduction in bFGF-induced angiogenesis in Matrigel mouse model at 25 mg/kg, ip bid. Format: functional. Also noted: scale not given: the % may be the effect or the level left. As to conditions: route intraperitoneal.
Experiment [3] concerns Mus musculus. The experiment is described as follows: Reduction in bFGF-induced angiogenesis in Matrigel mouse model at 50 mg/kg, ip bid. Also noted: scale not given: the % may be the effect or the level left. As to conditions: route intraperitoneal. Format: functional.
Another experiment relates to MOPC 315. The experiment is described as follows: Efficacy in mouse MOPC315 cells xenografted mouse assessed as delay in tumor growth. Format: functional, cell-based.

Structures are written as SMILES.

Angiopoietin-1 receptor, sequence (Q02763 whole entry): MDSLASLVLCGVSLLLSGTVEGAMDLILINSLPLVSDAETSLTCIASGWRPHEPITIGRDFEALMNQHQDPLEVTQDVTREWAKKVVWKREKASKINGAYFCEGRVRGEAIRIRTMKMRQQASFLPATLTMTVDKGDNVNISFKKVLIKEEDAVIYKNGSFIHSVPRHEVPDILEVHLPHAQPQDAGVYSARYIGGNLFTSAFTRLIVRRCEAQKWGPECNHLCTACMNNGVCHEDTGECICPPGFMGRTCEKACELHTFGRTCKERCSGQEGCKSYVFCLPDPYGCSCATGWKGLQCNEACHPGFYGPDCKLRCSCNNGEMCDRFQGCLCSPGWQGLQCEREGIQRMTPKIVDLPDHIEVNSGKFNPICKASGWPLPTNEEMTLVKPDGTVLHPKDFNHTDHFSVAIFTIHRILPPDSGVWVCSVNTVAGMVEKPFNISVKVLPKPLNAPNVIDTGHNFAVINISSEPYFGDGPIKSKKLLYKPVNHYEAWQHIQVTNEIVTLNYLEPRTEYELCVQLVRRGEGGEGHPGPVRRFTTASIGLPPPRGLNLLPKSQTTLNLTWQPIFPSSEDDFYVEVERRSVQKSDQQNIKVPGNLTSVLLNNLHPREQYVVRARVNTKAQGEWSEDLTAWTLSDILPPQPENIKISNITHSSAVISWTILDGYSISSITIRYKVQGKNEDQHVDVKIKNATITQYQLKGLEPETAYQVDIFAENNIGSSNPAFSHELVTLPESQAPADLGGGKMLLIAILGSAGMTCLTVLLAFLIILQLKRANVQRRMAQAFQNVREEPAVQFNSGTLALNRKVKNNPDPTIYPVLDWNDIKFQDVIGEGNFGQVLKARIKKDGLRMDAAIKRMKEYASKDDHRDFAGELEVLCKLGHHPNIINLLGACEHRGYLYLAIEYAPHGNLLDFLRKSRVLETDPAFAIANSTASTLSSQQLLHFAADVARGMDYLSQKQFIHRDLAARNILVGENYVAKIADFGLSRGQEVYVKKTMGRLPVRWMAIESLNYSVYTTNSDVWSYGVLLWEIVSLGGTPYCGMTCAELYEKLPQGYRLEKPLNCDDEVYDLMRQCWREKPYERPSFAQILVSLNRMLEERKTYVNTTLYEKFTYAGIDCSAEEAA

For the compound `CCn1c(-c2ccc([S+](C)[O-])cc2)nc(-c2ccncc2)c1-c1ccc2cc(OC)ccc2c1` (stereo not given), the IC50 was 5.37 µM on Angiopoietin-1 receptor and above 16 µM in experiment [1].

Turning to `C[S+]([O-])c1ccc(-c2nc(-c3ccc4cc(-c5ccccc5)ccc4c3)c(-c3ccncc3)[nH]2)cc1` (stereo not given), the IC50 turned out to be 5.5 µM at Angiopoietin-1 receptor and 16.5 µM in experiment [1].

With `COc1ccc2cc(-c3c(-c4ccncc4)nc(-c4ccc([S+](C)[O-])cc4)n3CC(C)C)ccc2c1` (stereo not given), the IC50 was 3.89 µM against Angiopoietin-1 receptor and above 16 µM in experiment [1].

For the compound `C[S+]([O-])c1ccc(-c2nc(-c3ccc4cc(Br)ccc4c3)c(-c3ccncc3)[nH]2)cc1` (stereo not given), the IC50 is 0.339 µM against Angiopoietin-1 receptor and 4.57 µM in experiment [1].

Turning to `CCCn1c(-c2ccc([S+](C)[O-])cc2)nc(-c2ccncc2)c1-c1ccc2cc(OC)ccc2c1` (stereo not given), the IC50 on Angiopoietin-1 receptor was 0.437 µM; in experiment [1] it was above 16 µM.

In the case of `Cc1ccc2cc(-c3nc(-c4ccc([S+](C)[O-])cc4)[nH]c3-c3ccncc3)ccc2c1` (stereo not given), the IC50 against Angiopoietin-1 receptor was found to be 0.219 µM; in experiment [1] it was 0.741 µM.

Regarding `COc1ccc2cc(-c3nc(-c4ccc([S+](C)[O-])cc4)[nH]c3-c3ccncc3)ccc2c1` (stereo not given), the IC50 at Angiopoietin-1 receptor was 0.25 µM; in experiment [1], 50 µM. Besides, the Activity in the experiment with Mus musculus [2] is 41%; in the experiment with Mus musculus [3], 70%; in the experiment on MOPC 315 it was “Dose-dependent effect”.

As for `COc1ccc2cc(-c3c(-c4ccncc4)nc(-c4ccc([S+](C)[O-])cc4)n3C)ccc2c1` (stereo not given), the results for the IC50 (on Angiopoietin-1 receptor; in experiment [1]) were 0.06 µM and 16 µM, respectively. For the same compound, the results for the Activity in the experiment with Mus musculus [2] and with Mus musculus [3] were 5% and 30%, respectively.

`COc1ccc2cc(-c3nc(-c4ccc([S+](C)[O-])cc4)n(C)c3-c3ccncc3)ccc2c1` (stereo not given): the IC50 against Angiopoietin-1 receptor turned out to be 20 µM; in experiment [1], 16 µM.

For `C[S+]([O-])c1ccc(-c2nc(-c3ccc4ccccc4c3)c(-c3ccncc3)[nH]2)cc1` (stereo not given), the IC50 (on Angiopoietin-1 receptor; in experiment [1]) was 0.3 µM in each case.
